Chromatographic logP and pest or weed control data for 31 molecules are collected here from US20090030024A1, “THIAZOLES AS FUNGICIDES” (priority 2005, published 2009).

The nature of data set [1]: logP determination by retention times (calibration with alkan-2-ones).
The test system of the next data set is Phytophthora infestans. Briefly: whole plant or invertebrate. The conditions noted are these: in Solanum lycopersicum, 168 h, read-out: efficacy. It is filed as in vivo.
Another data set deals with Leptosphaeria nodorum. Briefly: Leptosphaeria nodorum test (wheat)/protective. The class given is in vivo. Conditions: Parastagonospora nodorum, 240 h, protective spray, active compound concentration 1000 ppm, evaluation 10 days after inoculation, read-out: efficacy. As to the method: Leptosphaeria Nodorum Test (Wheat)/Protective [table] […] After the spray coating has dried on, the plants are sprayed with a spore suspension of Leptosphaeria nodorum. The plants remain in an incubation cabin at 20° C. and 100% relative atmospheric humidity for 48 hours. The plants are placed in a greenhouse at a temperature of about 20° C. and a relative atmospheric humidity of 80%.

In another data set the test system is Fusarium graminearum. Briefly: whole plant or invertebrate. Conditions: in Hordeum vulgare, 96 h, read-out: efficacy. It is filed as in vivo.
Where [2] appears, read: logP, * HPLC reversed-phase C18, 40° C., mobile phase 0.1% aqueous formic acid and acetonitrile, linear gradient 10% to 95% acetonitrile.

Like-named read-outs stand apart in the source and are kept apart here. A value given as a limit tells only on which side of the number the result lay.

In general, chromatographic logP refers to lipophilicity estimated from chromatographic retention. In turn, `Cc1nc(C)c(-c2ccnc(Nc3ccc(F)cc3)n2)s1` [Example 186, 4-(2,4-dimethyl-1,3-thiazol-5-yl)-N-(4-fluorophenyl)pyrimidine-2-amine] yielded a chromatographic logP in data set [1] of 2.65. Moreover, the pest or weed control at 500 ppm in the data set on Phytophthora infestans is at least 70%.
For the molecule `COCCOC(=O)Nc1ccc(Nc2nccc(-c3sc(N)nc3C)n2)cc1` [Example 69, 2-methoxyethyl-(4-{[4-(2-amino-4-methyl-1,3-thiazol-5-yl)pyrimidin-2-yl]amino}phenyl)carbamate], the chromatographic logP in data set [1] came out at 1.4. Further, the pest or weed control at 500 ppm in the data set with Phytophthora infestans was at least 70%.
For the molecule `CCc1nc(C)c(-c2ccnc(Nc3ccc(NC(=O)OCCOC)cc3)n2)s1` [Example 73, 2-methoxyethyl-(4-{[4-(2-ethyl-4-methyl-1,3-thiazol-5-yl)pyrimidin-2-yl]amino}phenyl)carbamate], the chromatographic logP in data set [1] came to 2.36. In addition, the pest or weed control at 500 ppm with Phytophthora infestans is at least 70%. Also, the pest or weed control at 1000 ppm in the data set on Leptosphaeria nodorum is at least 70%.
`Cc1nc(C)c(-c2ccnc(Nc3ccccc3)n2)s1` [Example 190, 4-(2,4-dimethyl-1,3-thiazol-5-yl)-N-phenylpyrimidine-2-amine]: the chromatographic logP in data set [1] amounted to 2.4. For the same molecule, the pest or weed control at 1000 ppm with Leptosphaeria nodorum and with Fusarium graminearum was at least 70% throughout.
With `Cc1nc(C(C)C)sc1-c1ccnc(Nc2ccc(O)cc2)n1` [Example 329, 4-{[4-(2-isopropyl-4-methyl-1,3-thiazol-5-yl)pyrimidin-2-yl]amino}phenol], in data set [1], the chromatographic logP worked out at 2.18. In addition, the pest or weed control at 500 ppm in the data set with Phytophthora infestans was at least 70%.
The molecule `Cc1nc(N)sc1-c1ccnc(Nc2ccc(CNC(=O)OC(C)(C)C)cc2)n1` [Example 628, tert-butyl-(4-{[4-(2-amino-4-methyl-1,3-thiazol-5-yl)pyrimidin-2-yl]amino}benzyl)carbamate] showed a chromatographic logP in data set [1] (setting [2]) of 1.86. In the data set with Phytophthora infestans, the pest or weed control at 500 ppm was at least 70%.
For the molecule `COc1cc(Nc2nccc(-c3sc(C4CC4)nc3C)n2)cc(OC)c1OC` [Example 222, 4-(2-cyclopropyl-4-methyl-1,3-thiazol-5-yl)-N-(3,4,5-trimethoxyphenyl)pyrimidine-2-amine], in data set [1], the chromatographic logP turned out to be 2.77. Further, the pest or weed control at 1000 ppm in the data set on Fusarium graminearum is at least 70%.
In data set [1], `Cc1nc(N)sc1-c1ccnc(Nc2ccccc2)n1` [Example 210, 4-(2-amino-4-methyl-1,3-thiazol-5-yl)-N-phenylpyrimidine-2-amine] had a chromatographic logP of 1.51. For the same molecule, in the data set on Phytophthora infestans, the pest or weed control at 500 ppm is at least 70%.
As for `Cc1nc(C(C)C)sc1-c1ccnc(Nc2cccc(O)c2)n1` [Example 151, 3-{[4-(2-isopropyl-4-methyl-1,3-thiazol-5-yl)pyrimidin-2-yl]amino}phenol], the chromatographic logP in data set [1] worked out at 2.42. The pest or weed control at 1000 ppm in the data set on Leptosphaeria nodorum and in the data set with Fusarium graminearum was at least 70% each time.
As for `Cc1nc(C)c(-c2ccnc(Nc3ccc(F)cc3F)n2)s1` [Example 759, N-(2,4-difluorophenyl)-4-(2,4-dimethyl-1,3-thiazol-5-yl)pyrimidine-2-amine], the chromatographic logP in data set [1] (setting [2]) was determined as 2.8. In addition, in the data set on Leptosphaeria nodorum, the pest or weed control at 1000 ppm was at least 70%.
For `CCc1nc(C)c(-c2ccnc(Nc3ccccc3)n2)s1` [Example 243, 4-(2-ethyl-4-methyl-1,3-thiazol-5-yl)-N-phenylpyrimidine-2-amine], in data set [1], the chromatographic logP was 3.07. Also, the pest or weed control at 500 ppm in the data set on Phytophthora infestans was at least 70%. In the data set on Fusarium graminearum, the pest or weed control at 1000 ppm was at least 70%.
Take `CCOC(=O)c1cccc(Nc2nccc(-c3sc(C(C)C)nc3C)n2)c1` [Example 375, ethyl-3-{[4-(2-isopropyl-4-methyl-1,3-thiazol-5-yl)pyrimidin-2-yl]amino}benzoate]: the chromatographic logP in data set [1] came to 3.83. Moreover, the pest or weed control at 1000 ppm in the data set with Fusarium graminearum is at least 70%.
In turn, `CC(=O)c1cccc(Nc2nccc(-c3sc(C4CC4)nc3C)n2)c1` [Example 7, 1-(3-{[4-(2-cyclopropyl-4-methyl-1,3-thiazol-5-yl)pyrimidin-2-yl]amino}phenyl)ethanone] returned a chromatographic logP in data set [1] of 2.88. Besides, the pest or weed control at 1000 ppm with Leptosphaeria nodorum was at least 70%.
In data set [1], `CCc1nc(C)c(-c2ccnc(Nc3ccc(OC)nc3)n2)s1` [Example 240, 4-(2-ethyl-4-methyl-1,3-thiazol-5-yl)-N-(6-methoxypyridin-3-yl)pyrimidine-2-amine] returned a chromatographic logP of 2.33. In addition, the pest or weed control at 1000 ppm with Leptosphaeria nodorum and with Fusarium graminearum was at least 70% in each case.
`CCc1nc(C)c(-c2ccnc(Nc3cc(OC)c(OC)c(OC)c3)n2)s1` [Example 235, 4-(2-ethyl-4-methyl-1,3-thiazol-5-yl)-N-(3,4,5-trimethoxyphenyl)pyrimidine-2-amine] displayed a chromatographic logP in data set [1] of 2.61. Also, the pest or weed control at 500 ppm in the data set with Phytophthora infestans was at least 70%. Also, the pest or weed control at 1000 ppm with Fusarium graminearum is at least 70%.
`CCc1nc(C)c(-c2ccnc(Nc3ccc(NC(C)=O)cc3)n2)s1` [Example 460, N-(4-{[4-(2-ethyl-4-methyl-1,3-thiazol-5-yl)pyrimidin-2-yl]amino}phenyl)acetamide]: the chromatographic logP in data set [1] (setting [2]) came to 1.88. Further, the pest or weed control at 500 ppm with Phytophthora infestans is at least 70%.
Consider `CC(=O)Nc1ccc(Nc2nccc(-c3sc(C(C)C)nc3C)n2)cc1` [Example 461, N-(4-{[4-(2-isopropyl-4-methyl-1,3-thiazol-5-yl)pyrimidin-2-yl]amino}phenyl)acetamide], for which the chromatographic logP in data set [1] (setting [2]) amounted to 2.15. In addition, the pest or weed control at 1000 ppm with Leptosphaeria nodorum and with Fusarium graminearum was at least 70% in each case.
Turning to `Cc1nc(C)c(-c2ccnc(Nc3ccc(O)cc3)n2)s1` [Example 321, 4-{[4-(2,4-dimethyl-1,3-thiazol-5-yl)pyrimidin-2-yl]amino}phenol], in data set [1], the chromatographic logP was 1.62. Besides, the pest or weed control at 500 ppm in the data set with Phytophthora infestans was at least 70%.
In the case of `Cc1nc(C2CC2)sc1-c1ccnc(Nc2ccc(CNC(=O)OC(C)(C)C)cc2)n1` [Example 630, tert-butyl-(4-{[4-(2-cyclopropyl-4-methyl-1,3-thiazol-5-yl)pyrimidin-2-yl]amino}benzyl)carbamate], the chromatographic logP in data set [1] (setting [2]) is 3.46. The pest or weed control at 500 ppm in the data set on Phytophthora infestans is at least 70%.
On to `Cc1nc(C2CC2)sc1-c1ccnc(Nc2ccc(O)cc2)n1` [Example 324, 4-{[4-(2-cyclopropyl-4-methyl-1,3-thiazol-5-yl)pyrimidin-2-yl]amino}phenol], for which the chromatographic logP in data set [1] was 2.01. In the data set on Phytophthora infestans, the pest or weed control at 500 ppm was at least 70%.
Taken in the same sequence, the figures for `COc1cc(Nc2nccc(-c3sc(N)nc3C)n2)cc(OC)c1OC` [Example 201, 4-(2-amino-4-methyl-1,3-thiazol-5-yl)-N-(3,4,5-trimethoxyphenyl)pyrimidine-2-amine] were 1.51 and at least 70%.
Turning to `CCc1nc(C)c(-c2ccnc(Nc3ccc(O)cc3)n2)s1` [Example 327, 4-{[4-(2-ethyl-4-methyl-1,3-thiazol-5-yl)pyrimidin-2-yl]amino}phenol], the chromatographic logP in data set [1] amounted to 1.88. For the same molecule, in the data set with Phytophthora infestans, the pest or weed control at 500 ppm is at least 70%.
`Cc1nc(C)c(-c2ccnc(Nc3ccc(N(C)C)c(Cl)c3)n2)s1` [Example 62, 2-chloro-N4-[4-(2,4-dimethyl-1,3-thiazol-5-yl)pyrimidin-2-yl]-N1,N1-dimethylbenzene-1,4-diamine] showed a chromatographic logP in data set [1] of 2.06. Also, the pest or weed control at 1000 ppm in the data set with Leptosphaeria nodorum was at least 70%.
In turn, `CCc1nc(C)c(-c2ccnc(Nc3ccc(F)cc3)n2)s1` [Example 239, 4-(2-ethyl-4-methyl-1,3-thiazol-5-yl)-N-(4-fluorophenyl)pyrimidine-2-amine] had a chromatographic logP in data set [1] of 3.1. In the data set on Phytophthora infestans, the pest or weed control at 500 ppm was at least 70%.
Turning to `COCC(C)Nc1nc(C)c(-c2ccnc(Nc3ccc(O)cc3)n2)s1` (stereo not shown) [Example 284, 4-[(4-{2-[(2-methoxy-1-methylethyl)amino]-4-methyl-1,3-thiazol-5-yl}pyrimidin-2-yl)amino]phenol], the chromatographic logP in data set [1] is 1.4.
In the case of `COc1ccc(Nc2nccc(-c3sc(C)nc3C)n2)cc1Cl` [Example 416, N-(3-chloro-4-methoxyphenyl)-4-(2,4-dimethyl-1,3-thiazol-5-yl)pyrimidine-2-amine], the chromatographic logP in data set [1] (setting [2]) was found to be 2.88.
As to `COc1ccc(Nc2nccc(-c3sc(N)nc3C)n2)cc1Cl` [Example 203, 4-(2-amino-4-methyl-1,3-thiazol-5-yl)-N-(3-chloro-4-methoxyphenyl)pyrimidine-2-amine], the chromatographic logP in data set [1] turned out to be 1.63. The pest or weed control at 500 ppm in the data set on Phytophthora infestans is at least 70%.
In turn, `CC(=O)c1ccc(Nc2nccc(-c3sc(C(C)(C)C)nc3C)n2)cc1` [Example 885, 1-(4-{[4-(2-tert-butyl-4-methyl-1,3-thiazol-5-yl)pyrimidin-2-yl]amino}phenyl)ethanone] returned a chromatographic logP in data set [1] (logP, values marked *: HPLC on reversed-phase C 18, 40° C., mobile phase 0.1% aqueous formic acid and acetonitrile, linear gradient 10% to 95% acetonitrile) of 4.22.
`CCc1nc(C)c(-c2ccnc(Nc3cccc(C(C)=O)c3)n2)s1` [Example 9, 1-(3-{[4-(2-ethyl-4-methyl-1,3-thiazol-5-yl)pyrimidin-2-yl]amino}phenyl)ethanone]: the chromatographic logP in data set [1] amounted to 2.7. For the same molecule, in the data set with Fusarium graminearum, the pest or weed control at 1000 ppm was at least 70%.
For `CC(=O)c1cccc(N(C(C)=O)c2nccc(-c3sc(C4CC4)nc3C)n2)c1` [Example 665, N-(3-acetylphenyl)-N-[4-(2-cyclopropyl-4-methyl-1,3-thiazol-5-yl)pyrimidin-2-yl]acetamide], the chromatographic logP in data set [1] (setting [2]) amounted to 2.43.
Still for that read-out and setting: as for `Cc1nc(-c2cccnc2)sc1-c1ccnc(Nc2ccccc2)n1` [Example 715, 4-(4-methyl-2-pyridin-3-yl-1,3-thiazol-5-yl)-N-phenylpyrimidine-2-amine], the figure is 3.04.
